Results from US20190077795A1, “ARGININE […] INHIBITORS AND USES THEREOF” (Epizyme, Inc., priority 2014, published 2019).
Where two headings read alike, the source gives them in different places.

Assays:
Settings in all cases: peptide substrate, 3H-SAM Flashplate assay
[1] = molecular target: T1, human PRMT6 (Homo sapiens, UniProt Q96LA8); test: PRMT6 Biochemical Assay
T1 construct: Flag-PRMT6-His; made in house; host or cells: HEK 293F cells (BacMam baculovirus, pFastBacMam)
Excerpt: (§1) S-adenosylmethionine (SAM), S-adenosylhomocysteine (SAH), bicine, Tween20, dimethylsulfoxide (DMSO), bovine skin gelatin (BSG), sodium butyrate and Tris(2-carboxyethyl)phosphine hydrochloride solution (TCEP) were purchased from Sigma-Aldrich at the highest level of purity possible. ^3H-SAM was purchase from American Radiolabeled Chemicals with a specific activity of 80 Ci/mmol. 384-well streptavidin Flashplates were purchased from PerkinElmer.
Peptide representative of human histone H4 residues 36-50 was synthesized with an N-terminal linker-affinity tag motif and a C-terminal amide cap by 21st Century Biochemicals.
The amplified gene was subcloned into pFastBacMam (Viva Biotech).
Recombinant baculovirus were generated according to Bac-to-Bac kit instructions (Life Technologies). […] Infections were carried out at 37° C. for 48 hours, harvested by centrifugation, and stored at −80° C. for purification.
Column was washed with 20 mM imidazole in the same buffer and Flag-PRMT6-His was eluted with 150 mM imidazole. Pooled fractions were dialysed against buffer Ni-A and further purified by anti-flag M2 affinity chromatography. Flag-PRMT6-His was eluted with 200 ug/ml FLAG peptide in the same buffer. Pooled fractions were dialysed in 20 mM Tris, 150 mM NaCl, 10% glycerol and 5 mM β-mercaptoethanol, pH 7.8.
General Procedure for PRMT6 Enzyme Assays on Peptide Substrates.
(§2) The assays were all performed in a buffer consisting of 20 mM Bicine (pH=7.6), 1 mM TCEP, 0.005% BSG, and 0.002% Tween 20, prepared on the day of use. […] DMSO (1 ul) was added to Columns 11, 12, 23, 24, rows A-H for the maximum signal control and 1 ul of SAH, a known product and inhibitor of PRMT6, was added to columns 11, 12, 23, 24, rows I-P for the minimum signal control. A cocktail (40 ul) containing the PRMT6 enzyme was added by Multidrop Combi (Thermo-Fisher). The compounds were allowed to incubate with PRMT6 for 30 min at room temperature, then a cocktail (10 ul) containing SAM and peptide was added to initiate the reaction (final volume=51 ul). […] The assays were stopped by the addition of non-radiolabeled SAM (10 ul) to a final concentration of 400 uM, which dilutes the ^3H-SAM to a level where its incorporation into the peptide substrate is no longer detectable. 50 ul of the reaction in the 384-well polypropylene plate was then transferred to a 384-well Flashplate and the biotinylated peptides were allowed to bind to the streptavidin surface for at least 1 hour before being washed once with 0.1% Tween20 in a Biotek ELx405 plate washer. The plates were then read in a PerkinElmer TopCount plate reader to measure the quantity of ^3H-labeled peptide bound to the Flashplate surface, measured as disintegrations per minute (dpm) or alternatively, referred to as counts per minute (cpm).
(§3) Where dpm=disintegrations per minute, cmpd=signal in assay well, and min and max are the respective minimum and maximum signal controls.
(§4) Where top and bottom are the normally allowed to float, but may be fixed at 100 or 0 respectively in a 3-parameter fit. The Hill Coefficient normally allowed to float but may also be fixed at 1 in a 3-parameter fit. Y is the % inhibition and X is the compound concentration.

[2] = molecular target: T2, human PRMT1 (Homo sapiens, UniProt Q99873); test: PRMT1 Biochemical Assay
T2 construct: GST-tagged PRMT1; made in house; host or cells: High Five insect cells (baculovirus, pFastBac1)
T2 sequence (Q99873 with tags, fused parts or gaps): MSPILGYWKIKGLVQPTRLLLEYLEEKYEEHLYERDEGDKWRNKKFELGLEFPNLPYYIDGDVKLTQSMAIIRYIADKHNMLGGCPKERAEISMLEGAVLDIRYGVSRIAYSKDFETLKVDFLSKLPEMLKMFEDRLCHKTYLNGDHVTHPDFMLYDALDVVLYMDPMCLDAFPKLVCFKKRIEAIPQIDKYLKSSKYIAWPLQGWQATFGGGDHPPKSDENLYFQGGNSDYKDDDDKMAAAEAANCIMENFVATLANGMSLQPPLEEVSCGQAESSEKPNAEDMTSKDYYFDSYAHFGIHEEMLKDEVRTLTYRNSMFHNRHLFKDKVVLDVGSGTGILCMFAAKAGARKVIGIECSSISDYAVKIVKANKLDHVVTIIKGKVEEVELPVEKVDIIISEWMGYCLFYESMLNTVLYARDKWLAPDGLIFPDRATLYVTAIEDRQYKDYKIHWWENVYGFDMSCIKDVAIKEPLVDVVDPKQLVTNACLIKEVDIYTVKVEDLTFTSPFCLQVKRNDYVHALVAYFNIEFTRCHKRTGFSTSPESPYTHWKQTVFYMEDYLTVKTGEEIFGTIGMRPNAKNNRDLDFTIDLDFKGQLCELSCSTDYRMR
Excerpt: as §1, with “(BSG),” for “(BSG), sodium butyrate”
Recombinant baculovirus were generated according to Bac-to-Bac kit instructions (Life Technologies). […] Infections were carried out at 27° C. for 48 hours, harvested by centrifugation, and stored at −80° C. for purification.
GST-tagged PRMT1 was eluted with 50 mM Tris, 2 mM glutathione, pH 7.8, dialysed in buffer A and concentrated to 1 mg/mL.
General Procedure for PRMT1 Enzyme Assays on Peptide Substrates.
as §2, with “PRMT1,” for “PRMT6,”, “PRMT1” for “PRMT6”, “300” for “400”
as §3, §4

[3] = molecular target: human PRMT8 (Homo sapiens, UniProt Q9NR22); test: PRMT8 Biochemical Assay
human PRMT8, sequence (Q9NR22 whole entry): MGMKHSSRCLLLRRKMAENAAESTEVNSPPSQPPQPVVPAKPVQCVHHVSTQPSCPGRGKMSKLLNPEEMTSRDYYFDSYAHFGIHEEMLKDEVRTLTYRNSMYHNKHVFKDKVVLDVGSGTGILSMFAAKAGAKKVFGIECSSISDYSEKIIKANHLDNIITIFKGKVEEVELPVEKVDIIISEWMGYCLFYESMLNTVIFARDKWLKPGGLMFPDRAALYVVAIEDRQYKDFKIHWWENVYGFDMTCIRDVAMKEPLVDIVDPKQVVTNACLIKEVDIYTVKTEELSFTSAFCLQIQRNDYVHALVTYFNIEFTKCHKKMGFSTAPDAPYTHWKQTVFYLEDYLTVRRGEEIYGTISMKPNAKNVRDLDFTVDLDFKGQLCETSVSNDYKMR
Excerpt: S-adenosylmethionine (SAM), S-adenosylhomocysteine (SAH), bicine, Tween20, dimethylsulfoxide (DMSO), bovine skin gelatin (BSG), isopropyl-3-D-thiogalactopyranoside (IPTG), and Tris(2-carboxyethyl)phosphine hydrochloride solution (TCEP) were purchased from Sigma-Aldrich at the highest level of purity possible. ^3H-SAM was purchase from American Radiolabeled Chemicals with a specific activity of 80 Ci/mmol. 384-well streptavidin Flashplates were purchased from PerkinElmer.
E. coli (BL21(DE3) Gold, Stratagene) made competent by the CaCl2 method were transformed with the PRMT8 construct and ampicillin selection. Protein over-expression was accomplished by growing the PRMT8 expressing E. coli clone and inducing expression with 0.3 mM IPTG at 16° C. The culture was grown for 12 hours, harvested by centrifugation, and stored at −80° C. for purification.
GST-tagged PRMT8 was eluted with 50 mM Tris, 2 mM glutathione, pH 7.8. Pooled fractions were cleaved by thrombin (10U) and dialysed in buffer A. GST was removed by reloading the cleaved protein sample onto glutathione sepharose column and PRMT8 was collected in the flow-through fractions. PRMT8 was purified further by ceramic hydroxyapatite chromatography. The column was washed with 50 mM phosphate buffer, 100 mM NaCl, 5% glycerol, 5 mM β-mercaptoethanol, pH 7.8 and PRMT8 was eluted by 100 mM phosphate in the same buffer. Protein was concentrated and buffer was exchanged to 50 mM Tris, 300 mM NaCl, 10% glycerol, 5 mM β-mercaptoethanol, pH 7.8 by ultrafiltration.
General Procedure for PRMT8 Enzyme Assays on Peptide Substrates.
The assays were all performed in a buffer consisting of 20 mM Bicine (pH=7.6), 1 mM TCEP, 0.005% BSG, and 0.002% Tween 20, prepared on the day of use. […] DMSO (1 ul) was added to Columns 11, 12, 23, 24, rows A-H for the maximum signal control and 1 ul of SAH, a known product and inhibitor of PRMT8, was added to columns 11, 12, 23, 24, rows I-P for the minimum signal control. A cocktail (40 ul) containing the PRMT8 enzyme was added by Multidrop Combi (Thermo-Fisher). The compounds were allowed to incubate with PRMT8 for 30 min at room temperature, then a cocktail (10 ul) containing ^3H-SAM and peptide was added to initiate the reaction (final volume=51 ul). […] The assays were stopped by the addition of non-radiolabeled SAM (10 ul) to a final concentration of 400 uM, which dilutes the ^3H-SAM to a level where its incorporation into the peptide substrate is no longer detectable. 50 ul of the reaction in the 384-well polypropylene plate was then transferred to a 384-well Flashplate and the biotinylated peptides were allowed to bind to the streptavidin surface for at least 1 hour before being washed once with 0.1% Tween20 in a Biotek ELx405 plate washer. The plates were then read in a PerkinElmer TopCount plate reader to measure the quantity of ^3H-labeled peptide bound to the Flashplate surface, measured as disintegrations per minute (dpm) or alternatively, referred to as counts per minute (cpm).

T1 sequence (Q96LA8 with tags, fused parts or gaps): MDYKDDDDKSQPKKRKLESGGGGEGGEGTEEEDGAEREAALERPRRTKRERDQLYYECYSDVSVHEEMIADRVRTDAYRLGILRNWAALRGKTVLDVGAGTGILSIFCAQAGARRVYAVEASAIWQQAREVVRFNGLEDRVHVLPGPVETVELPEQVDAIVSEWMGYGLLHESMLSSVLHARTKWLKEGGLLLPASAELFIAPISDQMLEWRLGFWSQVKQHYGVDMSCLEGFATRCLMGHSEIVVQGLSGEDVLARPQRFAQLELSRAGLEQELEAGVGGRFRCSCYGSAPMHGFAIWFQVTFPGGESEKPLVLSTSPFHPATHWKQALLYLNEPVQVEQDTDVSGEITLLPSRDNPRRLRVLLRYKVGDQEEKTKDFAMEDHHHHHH

IC50 ([1]; read-out: PRMT6 IC50)	IC50 ([2]; read-out: PRMT1 IC50)	IC50 ([3]; PRMT8 IC50 (uM))	IC50 ([2]; PRMT1 IC50 (uM))	IC50 ([1]; PRMT6 IC50 (uM))	Compound	IC50 ([3]; read-out: PRMT8 IC50)
1.82 µM	0.0391 µM	0.563 µM			COCCCOc1cc(-c2n[nH]cc2CN(C)CCN)cc(C(F)(F)F)c1Cl [Compound 115]	
0.0206 µM	0.0107 µM	0.026 µM			CNCCN(C)Cc1c[nH]nc1-c1ccc(NC(C)c2cccnc2)nc1 (stereo not drawn) [Compound 52]	
0.00465 µM	0.03 µM	0.0599 µM			CNCCN(C)Cc1c[nH]nc1-c1ccc(OC2CC(OCCC3CCCCC3)C2)cc1 (stereo not drawn) [Compound 100]	
0.0677 µM		0.0245 µM	0.0105 µM		CNCCN(C)Cc1c[nH]nc1-c1ccc(CC(C)C)c(C(F)(F)F)c1 [Compound 50]	
0.105 µM	0.0374 µM	0.243 µM			CCN(Cc1ccncc1)c1ccc(-c2n[nH]cc2CN(C)CCNC)cn1 [Compound 113]	
0.0186 µM	0.0113 µM	0.023 µM			CNCCN(C)Cc1c[nH]nc1-c1ccc(OCCOc2ccc(OCCC3CCOCC3)cc2)cc1 [Compound 55]	
	0.119 µM	0.223 µM		0.0101 µM	CNCCN(C)Cc1cn[nH]c1-c1ccc(OC2CC(OCCC3CCOCC3)C2)cc1 (stereo not drawn) [Compound 145]	
0.066 µM	0.0355 µM	0.085 µM			CNCCN(C)Cc1c[nH]nc1-c1cc(F)c(OC(CO)CO)c(C(F)(F)F)c1 [Compound 107]	
0.254 µM	0.0163 µM	0.0871 µM			CNCCN(C)Cc1c[nH]nc1-c1cc(OC2CCCC2)cc(C(F)(F)F)c1 [Compound 76]	
0.285 µM	0.00531 µM	0.0261 µM			CNCCN(C)Cc1c[nH]nc1-c1cc(OCCCC(C)C)cc(C(F)(F)F)c1 [Compound 13]	
0.031 µM	0.0147 µM	0.062 µM			CNCCN(C)Cc1c[nH]nc1-c1ccc(NC(C)c2ccncc2)nc1 (stereo not drawn) [Compound 67]	

Compound	IC50 ([1]; read-out: PRMT6 IC50)	IC50 ([2]; read-out: PRMT1 IC50)	IC50 ([3]; PRMT8 IC50 (uM))	IC50 ([2]; PRMT1 IC50 (uM))	IC50 ([1]; PRMT6 IC50 (uM))	IC50 ([3]; read-out: PRMT8 IC50)
CNCCN(C)Cc1c[nH]nc1-c1ccc(O[C@H]2C[C@H](OCCC3CCOCC3)C2)cc1 [Compound 155, N1,N2-dimethyl-N1-((3-(4-(3-(2-(tetrahydro-2H-pyran-4-yl)ethoxy)cyclobutoxy)phenyl)-1H-pyrazol-4-yl)methyl)ethane-1,2-diamine bis(2,2,2-trifluoroacetate)]	0.0101 µM	0.119 µM				0.223 µM
